Assay results published in US20220062190A1, “Therapeutic Agent and Nutraceutical Compositions And Methods for Making and Using Same” (NUREVELATION, LLC, priority 2020, published 2022).
Structures can show the parent of a compound that is named as a salt.

Legend:
[1] = octanol/water; value not marked predicted; source not stated; cited from earlier work
[2] = test system: movement disorder due to antipsychotics known as dystonia and parkinsonism; conditions: use column of Table 1A; cited from earlier work
[3] = Solubility in water when preparing mass spectrometry standards; format: physicochemical; conditions: standard and batch prepared in methanol instead
Method: Samples for mass spectrometry were weighed and then concentrated to 5 mg/mL. The samples were further diluted to 0.1 mg/mL for analysis in 50/50 water to methanol. Standards were prepared to 20 μg/mL in optima grade methanol or water. The following standards were prepared in water at 20 μg/mL: bethanechol chloride, chloroquine diphosphate, cyclobenzaprine hydrochloride, D-penicillamine, ondansetron hydrochloride, venlafaxine hydrochloride, and donepezil hydrochloride.

Compound | LogP [1] | also measured
N[C@@H](Cc1cc(I)c(Oc2cc(I)c(O)c(I)c2)c(I)c1)C(=O)O [Levothyroxine] | 4.0 | 
Cc1ncc(CO)c(CO)c1O [Pyridoxine] | −0.77 | 
CN1[C@@H]2CC[C@H]1C[C@@H](OC(c1ccccc1)c1ccccc1)C2 [Benztropine] |  | duration of benefits [2]: ≤ 10 h; time until benefits are seen [2]: ≤ 2 h
CN(C)CCC=C1c2ccccc2C=Cc2ccccc21 [Cyclobenzaprine hydrochloride] | 5.2 | 
CC(C[N+](C)(C)C)OC(N)=O (centres unmarked) [Bethanechol chloride] | −4.1 | 
CC(C)(S)[C@@H](N)C(=O)O [D-penicillamine] | −1.78 | 
CC(=O)S[C@@H]1CC2=CC(=O)CC[C@]2(C)[C@H]2CC[C@@]3(C)[C@@H](CC[C@@]34CCC(=O)O4)[C@H]12 [Spironolactone] | 2.78 | 
CCCCC1=NC2(CCCC2)C(=O)N1Cc1ccc(-c2ccccc2-c2nnn[nH]2)cc1 [Irbesartan] | 4.5 | 
Nc1nnc(-c2cccc(Cl)c2Cl)c(N)n1 [Lamotrigine] | 1.93 | 
CC[C@H](C)C(=O)O[C@H]1C[C@@H](C)C=C2C=C[C@H](C)[C@H](CC[C@@H]3C[C@@H](O)CC(=O)O3)[C@H]21 [Lovaststin] | 4.08 | 
CC1=NS(=O)(=O)c2cc(Cl)ccc2N1 [Diazoxide] | 1.20 | 
NCCCC[C@H](N[C@@H](CCc1ccccc1)C(=O)O)C(=O)N1CCC[C@H]1C(=O)O [Lisinopril dihydrate] | −1.01 | 
C#C[C@]1(O)CC[C@H]2[C@@H]3CCc4cc(O)ccc4[C@H]3CC[C@@]21C [Ethinylestradiol] | 3.67 | 
C[C@H]1c2cccc(O)c2C(=O)C2=C(O)[C@]3(O)C(=O)C(C(N)=O)=C(O)[C@@H](N(C)C)[C@@H]3[C@@H](O)[C@@H]21 [Doxycycline] | 0.63 | 
CNC(=C[N+](=O)[O-])NCCSCc1ccc(CN(C)C)o1 [Ranitidine] | 0.2 | 
NC(=O)c1cnccn1 [Pyrazinamide] | −0.60 | 
COc1ccccc1OCCNCC(O)COc1cccc2[nH]c3ccccc3c12 (centres unmarked) [Carvedilol] | 3.8 | 
Cc1nc2n(c(=O)c1CCN1CCC(c3noc4cc(F)ccc34)CC1)CCCC2 [Risperidone] |  | solubility in water [3]: insolubility in water
COc1ccccc1OCC(O)CO (centres unmarked) [Guaifenesin] | 1.39 | 
Cc1cnc(NC(=O)C2=C(O)c3ccccc3S(=O)(=O)N2C)s1 [Meloxicam] | 0.1 | 
Nc1ccc(O)c(C(=O)O)c1 [Mesalamine] | −0.29 | 
NCC(CC(=O)O)c1ccc(Cl)cc1 (centres unmarked) [Baclofen] | 1.3 | 
